By IC50 is commonly meant the concentration that gives 50% inhibition. Read a high IC50 as weaker potency. What is called Kd is the free concentration of one partner at which half of the binding sites on the other are occupied at equilibrium, for simple one-to-one binding. The term CC50 denotes the concentration giving 50% cytotoxicity.

“Also recorded” adds a separate entry of the source.

In one data set the target is T1, SARS-CoV-2 M^pro (Severe acute respiratory syndrome coronavirus 2, UniProt P0DTD1).
T1 construct: This main protease is located in nsp5; purchased AnaSpec
As to the kind of experiment: biochemical. Conditions: for inhibition at 100 µM: read-out: Inhibition of enzymatic activity.

Another data set has as its target SARS-CoV-1 M^pro (Severe acute respiratory syndrome coronavirus, UniProt P0C6X7). As to the kind of experiment: biochemical. Conditions: for inhibition at 100 µM: read-out: Inhibition of enzymatic activity.
Another data set addresses MERS-CoV M^pro (Middle East respiratory syndrome-related coronavirus, UniProt K9N7C7). As to the kind of experiment: biochemical. The settings on record: for inhibition at 100 µM: read-out: MERS-CoV M^pro activity inhibited to.
The target in data set [1] is T2, recombinant M^pro of SARS-CoV-2 (Severe acute respiratory syndrome coronavirus 2, UniProt P0DTD1).
T2 construct: This main protease is located in nsp5; purchased Bio-Techne
Nature of the data set: biochemical. Format: binding.

Data set [2] concerns the target recombinant M^pro of SARS-CoV-1 (Severe acute respiratory syndrome coronavirus, UniProt P0C6X7). Nature of the data set: biochemical. Format: binding.
Data set [3] can be described thus: Resazurin cell viability assay. The settings on record: human, MRC-5 lung fibroblasts.
For data set [4], the system named is human diploid MRC-5 lung fibroblasts. Nature of the data set: Resazurin cell viability assay. The settings on record: MRC-5; tested range 0.3–100 µM; 72 h. (In general: Alamar Blue is a resazurin reagent that responds to reducing activity.)
Data set [5] addresses recombinant M^pro of MERS-CoV (Middle East respiratory syndrome-related coronavirus, UniProt K9N7C7). As to the kind of experiment: biochemical. It is filed as binding.
Another data set has as its system hepatitis C virus (HCV). The settings on record: chronic HCV infection; oral doses of 0.05 and 0.10 mg/kg/d; cited from earlier work.
The subject of data set [6] is human immunodeficiency virus (HIV). Conditions: orally administered, 0.5 mg/kg daily; limited number of patients; cited from earlier work.
The next data set concerns SARS-CoV-2. Conditions: cited from earlier work.

Chain of MERS-CoV M^pro (K9N7C7 3248-3553 limits assumed): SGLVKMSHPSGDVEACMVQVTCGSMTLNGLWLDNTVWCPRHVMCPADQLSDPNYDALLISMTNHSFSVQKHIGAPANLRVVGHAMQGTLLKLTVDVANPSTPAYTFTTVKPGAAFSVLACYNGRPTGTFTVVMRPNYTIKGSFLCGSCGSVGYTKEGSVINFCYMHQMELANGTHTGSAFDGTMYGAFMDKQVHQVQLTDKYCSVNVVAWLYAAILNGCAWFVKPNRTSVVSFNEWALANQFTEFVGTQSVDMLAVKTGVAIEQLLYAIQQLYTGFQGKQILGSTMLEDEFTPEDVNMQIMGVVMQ
Chain of recombinant M^pro of MERS-CoV (K9N7C7 3248-3553 limits assumed): as above

`COc1cc(-c2oc3cc(O)cc(O)c3c(=O)c2O)ccc1O` [Isorhamnetin]: the concentration for half-maximal inhibition (IC50) at SARS-CoV-2 M^pro was found to be 8.42 ± 1.15 µM; against SARS-CoV-1 M^pro, 13.1 ± 1.78 µM. Besides, on SARS-CoV-2 M^pro, the “Percentage of activity of SARS-CoV-2 M^pro in the presence of compound” value (“Percentage” for short) amounted to 8.56%. For the same compound, the “Therapeutic Index” value on SARS-CoV-2 M^pro amounted to 4.37; at SARS-CoV-1 M^pro it was 2.8. In addition, the inhibition at 100 µM was greater than 50% on SARS-CoV-2 M^pro and 26.3% at MERS-CoV M^pro. For the same compound, the dissociation constant Kd in [1] was 4.37 ± 3.9 µM; in data set [2], 3.6 ± 2.6 µM. The compound further displayed a CC50 at 72 h in data set [3] of 36.8 ± 3.4 µM. For the same compound, in [4], the “Inhibitory effect on cell viability” value is “slight toxicity”.

As to `Cc1cc(O)c2c(=O)c3c(O)cc(O)c4c5c(O)cc(O)c6c(=O)c7c(O)cc(C)c8c1c2c(c34)c(c78)c65` [Hypericin], the IC50 at SARS-CoV-2 M^pro came out at 23.3 ± 1.21 µM; against SARS-CoV-1 M^pro, 19.4 ± 3.11 µM; against MERS-CoV M^pro, 49.7 ± 5.41 µM. For the same compound, the “Percentage” value at SARS-CoV-2 M^pro stood at 4.95%. For the same compound, the “Therapeutic Index” value on SARS-CoV-2 M^pro amounted to 2.38; at SARS-CoV-1 M^pro, 2.85; on MERS-CoV M^pro, 1.11. Further, the inhibition at 100 µM at SARS-CoV-2 M^pro is greater than 50%. Further, the values for the Kd in data set [1], in [2] and in data set [5] were 7.73 ± 6.5 µM, 25.5 ± 13.6 µM and 54.9 ± 13.8 µM, respectively. The “Anti-HCV activity in patients” value with hepatitis C virus (HCV) is “without detectable anti-HCV activity”. In addition, in data set [6], the “Antiretroviral activity in clinical trial” value is “without antiretroviral activity”. The compound also returned a CC50 at 72 h in data set [3] of 55.5 ± 2.2 µM. The “Inhibitory effect on cell viability” value in data set [4] was “slight toxicity”.

Regarding `O=c1cc(-c2ccc(O)c(O)c2)oc2cc(O)cc(O)c12` [Luteolin], at SARS-CoV-2 M^pro, the concentration for half-maximal inhibition (IC50) came to 11.8 ± 1.27 µM, the “Percentage” value is recorded as 10.10% and the inhibition at 100 µM is greater than 50%. Also, the inhibition at 100 µM at SARS-CoV-1 M^pro came out at 44%. In addition, the inhibition at 100 µM on MERS-CoV M^pro was found to be 21.3%. The dissociation constant Kd in data set [1] came to 13.4 ± 2.7 µM.

`O=C(/C=C/c1ccc(O)c(O)c1)O[C@H](Cc1ccc(O)c(O)c1)C(=O)O` [Rosmarinic acid]: at SARS-CoV-2 M^pro, the IC50 was found to be 9.43 ± 0.46 µM, the “Percentage” value is on record as 8.28% and the inhibition at 100 µM is greater than 50%. For the same compound, the inhibition at 100 µM on SARS-CoV-1 M^pro is 31%. For the same compound, at MERS-CoV M^pro, the inhibition at 100 µM was found to be 14.9%. For the same compound, the dissociation constant (Kd) in data set [1] came to 15.5 ± 4.77 µM. In the data set with SARS-CoV-2, the “IC50 value, inhibition of SARS-CoV-2 replication” value is 25.47 mg/L. For the same compound, the “Inhibitory effect on cell viability” value in data set [4] was “did not show significant inhibitory effects; also recorded: did not inhibit”.

Values taken from article PMC8952009 (Pharmaceuticals, 2022).
